Common to all, as to format: cell-based
In one test the target is T1, F508del (Homo sapiens, UniProt P13569, DEL508-508).
T1 construct: expressed in transfected cells
The experiment in a line: 3T3 assay: membrane potential optical assay for F508del correction in NIH 3T3 cells. The following applies: for Emax: NIH3T3, read-out: 3T3 Max Activity. The text has this: 1. Membrane Potential Optical Methods for Assaying F508del Modulation Properties of Compounds
The assay utilizes fluorescent voltage sensing dyes to measure changes in membrane potential using a fluorescent plate reader (e.g., FLIPR III, Molecular Devices, Inc.) as a readout for increase in functional F508del in NIH 3T3 cells. The driving force for the response is the creation of a chloride ion gradient in conjunction with channel activation by a single liquid addition step after the cells have previously been treated with compounds and subsequently loaded with a voltage sensing dye.
2. Identification of Corrector Compounds
To identify correctors of F508del, a single-addition HTS assay format was developed. This HTS assay utilizes fluorescent voltage sensing dyes to measure changes in membrane potential on the FLIPR III as a measurement for increase in gating (conductance) of F508del in F508del NIH 3T3 cells. The F508del NIH 3T3 cell cultures were incubated with the corrector compounds at a range of concentrations for 18-24 hours at 37° C., and subsequently loaded with a redistribution dye. The driving force for the response is a Cl^− ion gradient in conjunction with channel activation with forskolin in a single liquid addition step using a fluorescent plate reader such as FLIPR III.
Bath Solution #1: (in mM) NaCl 160, KCl 4.5, CaCl2) 2, MgCl2 1, HEPES 10, pH 7.4 with NaOH.
Chloride-free bath solution: Chloride salts in Bath Solution #1 (above) are substituted with gluconate salts.
NIH3T3 mouse fibroblasts stably expressing F508del are used for optical measurements of membrane potential. The cells are maintained at 37° C. in 5% CO2 and 90% humidity in Dulbecco's modified Eagle's medium supplemented with 2 mM glutamine, 10% fetal bovine serum, 1×NEAA, b-ME, 1×pen/strep, and 25 mM HEPES in 175 cm^2 culture flasks. For all optical assays, the cells were seeded at ˜20,000/well in 384-well matrigel-coated plates. For the correction assays, the cells are cultured at 37° C. with and without compounds for 16-24 hours.

The target of test [1] is T2, CFTR (Homo sapiens, UniProt P13569). As to the kind of experiment: Membrane Potential Dye, Enteroid Assay A. To be noted: for EC50: read-out: Ent. A EC50. The method in brief: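 Enteroid cells were loaded with methyl oxonol membrane potential dye (plus CaCCinh-A01 and Chicago Sky Blue) for 25 min at room temperature. Chloride transport was started by switching to chloride-free gluconate stimulation solution, with fluorescence read for 15 min. Activity was expressed as % of a triple-combination CFTR modulator control (3 μM, 3 μM, 300 nM acute).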
T2 sequence (P13569 with tags, fused parts or gaps DEL508-508): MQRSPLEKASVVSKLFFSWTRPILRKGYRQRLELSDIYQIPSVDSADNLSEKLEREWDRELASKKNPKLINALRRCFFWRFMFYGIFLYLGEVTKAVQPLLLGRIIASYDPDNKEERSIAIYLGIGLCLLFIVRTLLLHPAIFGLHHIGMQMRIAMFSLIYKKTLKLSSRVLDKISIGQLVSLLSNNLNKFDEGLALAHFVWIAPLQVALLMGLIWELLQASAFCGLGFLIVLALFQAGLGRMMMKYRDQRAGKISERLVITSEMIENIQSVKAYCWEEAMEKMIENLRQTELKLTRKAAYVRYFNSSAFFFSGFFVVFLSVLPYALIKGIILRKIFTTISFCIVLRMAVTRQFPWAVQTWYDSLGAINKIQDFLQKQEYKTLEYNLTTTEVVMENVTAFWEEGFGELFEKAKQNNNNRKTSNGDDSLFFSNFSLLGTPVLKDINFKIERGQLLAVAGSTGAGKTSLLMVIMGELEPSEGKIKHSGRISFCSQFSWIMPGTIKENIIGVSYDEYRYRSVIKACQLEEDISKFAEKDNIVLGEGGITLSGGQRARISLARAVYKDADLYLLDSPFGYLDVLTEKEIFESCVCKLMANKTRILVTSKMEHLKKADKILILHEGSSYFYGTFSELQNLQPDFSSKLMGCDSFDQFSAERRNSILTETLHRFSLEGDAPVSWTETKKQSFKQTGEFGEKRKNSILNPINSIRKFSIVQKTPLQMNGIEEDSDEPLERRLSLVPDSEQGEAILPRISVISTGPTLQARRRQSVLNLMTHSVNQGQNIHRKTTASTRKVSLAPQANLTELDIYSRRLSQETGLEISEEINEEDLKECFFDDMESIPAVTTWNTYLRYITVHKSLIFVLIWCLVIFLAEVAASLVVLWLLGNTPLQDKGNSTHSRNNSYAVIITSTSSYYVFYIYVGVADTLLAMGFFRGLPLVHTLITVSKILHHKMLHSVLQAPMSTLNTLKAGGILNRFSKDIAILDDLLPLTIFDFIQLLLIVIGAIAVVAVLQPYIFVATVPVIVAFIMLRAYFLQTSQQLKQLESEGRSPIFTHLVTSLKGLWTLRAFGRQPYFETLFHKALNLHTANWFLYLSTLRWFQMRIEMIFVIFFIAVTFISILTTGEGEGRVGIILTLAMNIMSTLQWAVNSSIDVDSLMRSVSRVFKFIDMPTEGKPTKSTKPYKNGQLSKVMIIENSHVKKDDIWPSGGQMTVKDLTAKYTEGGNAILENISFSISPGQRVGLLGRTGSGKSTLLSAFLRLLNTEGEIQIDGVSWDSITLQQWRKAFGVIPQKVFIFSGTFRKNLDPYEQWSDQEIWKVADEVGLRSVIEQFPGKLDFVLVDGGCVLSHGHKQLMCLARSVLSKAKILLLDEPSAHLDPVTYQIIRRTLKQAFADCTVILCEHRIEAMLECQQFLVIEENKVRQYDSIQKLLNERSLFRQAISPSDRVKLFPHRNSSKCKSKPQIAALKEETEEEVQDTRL

In test [2] the target is T2, CFTR. The experiment in a line: Membrane Potential Dye, Enteroid Assay B. To be noted: Table 9; for EC50: read-out: Ent. B EC50. The method in brief:
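Enteroid cells loaded 25 min at room temperature with 20 μM methyl oxonol plus 30 μM CaCCinh-A01 and 30 μM Chicago Sky Blue, then switched to chloride-free gluconate buffer. Chloride transport was started by chloride-free stimulation solution, with fluorescence read for 15 min.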

Setting [3] is: NIH 3T3 cells, F508del correction.

T1 sequence (P13569 with tags, fused parts or gaps DEL508-508): as above

Consider `Cc1cccc(C)c1-c1cc2nc(n1)NS(=O)(=O)c1cccc(c1)C(=O)NC1CCCC(C1)O2` (stereo not shown) [Compound 203], for which the EC50 on F508del (setting [3]) is < 1 µM. In addition, on CFTR [1] (Enteroid Assay A), the “Ent. A Max Activity” value was “++ (++ is 30-60%)”.

For `Cc1cccc(C)c1-c1cc2nc(n1)NS(=O)(=O)c1cccc(c1)C(=O)NCC(C)(C)CO2` [Compound 202], on F508del (setting [3]), the EC50 is < 1 µM. In addition, at CFTR [1] (Enteroid Assay A), the “Ent. A Max Activity” value is “++ (++ is 30-60%)” and the EC50 was in the range of 3 to 30 µM.

With `Cc1cccc(C)c1-c1cc2nc(n1)NS(=O)(=O)c1cccc(c1)C(=O)NCC(c1ccc3c(c1)OCO3)O2` (stereo not shown) [Compound 118], at F508del (Table 8), the Emax is > 60% and the EC50 is < 1 µM. Also, on CFTR [1] (Table 8), the EC50 was < 1 µM.

On to `COc1cccc(C)c1-c1cc2nc(n1)NS(=O)(=O)c1cccc(c1)C(=O)N[C@H](CC(C)C)CO2` [Compound 318], for which, on F508del (setting [3]), the EC50 is < 1 µM. Further, at CFTR [1] (Enteroid Assay A), the “Ent. A Max Activity” value is given as “+++ (+++ is >600%)” and the EC50 lay in the range of 1 to 3 µM.

Regarding `Cc1cccc(C)c1-c1cc2nc(n1)NS(=O)(=O)c1cccc(c1)C(=O)NCCCO2` [Compound 204], the EC50 on F508del (setting [3]) lay within 1 to 3 µM. For the same compound, the “Ent. A Max Activity” value at CFTR [1] (Enteroid Assay A) is reported as “++ (++ is 30-60%)”.

For the compound `Cc1cccc(C)c1-c1cc2nc(n1)NS(=O)(=O)c1cccc(c1)C(=O)NCC(c1ccc(C3(C(F)(F)F)CC3)cc1)O2` (racemic) [Compound 9, 6-(2,6-dimethylphenyl)-10-{4-[1-(trifluoromethyl)cyclopropyl]phenyl}-9-oxa-2λ^6-thia-3,5,12,19-tetraazatricyclo[12.3.1.14,8]nonadeca-1(18),4(19),5,7,14,16-hexaene-2,2,13-trione], on F508del (Table 8), the Emax was > 60% and the EC50 is < 1 µM. On CFTR [1] (Table 8), the “Ent. A Max Activity” value is “+++ (+++ is >60%)” and the EC50 is < 1 µM.

As to `Cc1cccc(C)c1-c1cc2nc(n1)NS(=O)(=O)c1cccc(c1)C(=O)N[C@H](CC(C)C)[C@@H](C1CCCCC1)O2` [Compound 140], on F508del (Table 8), the Emax was > 60% and the EC50 is < 1 µM. For the same compound, at CFTR [1] (Table 8), the “Ent. A Max Activity” value is “+++ (+++ is >60%)” and the EC50 is < 1 µM.

For the compound `Cc1cccc(C)c1-c1cc2nc(n1)NS(=O)(=O)c1cccc(c1)C(=O)NC[C@@H](C1CCCCC1)O2` [Compound 269], at F508del (Table 8), the Emax is > 60% and the EC50 is < 1 µM.

Take `Cc1cccc(F)c1-c1cc2nc(n1)NS(=O)(=O)c1cccc(c1)C(=O)N[C@H](CC(C)C)CO2` [Compound 98, (11R)-6-(2-Fluoro-6-methylphenyl)-11-(2-methylpropyl)-9-oxa-2λ^6-thia-3,5,12,19-tetraazatricyclo[12.3.1.14,8]nonadeca-1(17),4,6,8(19),14(18),15-hexaene-2,2,13-trione]: on F508del (Table 8), the Emax is > 60% and the EC50 was < 1 µM. For the same compound, at CFTR [1] (Table 8), the “Ent. A Max Activity” value is “+++ (+++ is >60%)” and the EC50 is < 1 µM.

Regarding `Cc1cccc(C)c1-c1cc2nc(n1)NS(=O)(=O)c1cccc(c1)C(=O)NC[C@@H](Cc1ccccc1)O2` [Compound 347], the EC50 on F508del (setting [3]) and at CFTR [1] (Enteroid Assay A) was < 1 µM throughout. Moreover, the “Ent. A Max Activity” value at CFTR [1] (Enteroid Assay A) is “+++ (+++ is >600%)”.

For `Cc1cccc(C)c1-c1cc2nc(n1)NS(=O)(=O)c1cccc(c1)C(=O)NC[C@@H](c1ccc(C(C)(C)C)cn1)O2` (single isomer, unassigned) [Compound 7, 10-(5-tert-Butyl-2-pyridyl)-6-(2,6-dimethylphenyl)-2,2-dioxo-9-oxa-2λ^6-thia-3,5,12,19-tetrazatricyclo[12.3.1.14,8]nonadeca-1(18),4(19),5,7,14,16-hexaen-13-one], on F508del (Table 8), the Emax is > 60% and the EC50 was < 1 µM. For the same compound, at CFTR [1] (Table 8), the “Ent. A Max Activity” value is given as “+++ (+++ is >60%)” and the EC50 was < 1 µM.

Turning to `Cc1ccc2cc1C(=O)N[C@H](CC1CCCCC1)COc1cc(-c3c(C)cccc3C)nc(n1)NS2(=O)=O` [Compound 161], the EC50 at F508del (setting [3]) was 3 to 30 µM.

On to `Cc1cccc(C)c1-c1cc2nc(n1)NS(=O)(=O)c1cccc(c1)C(=O)NCC(c1ccc(C34CC(C3)C4)cc1)O2` (stereo not shown) [Compound 396], for which, on CFTR [1] (Table 9), the “Ent. A Max Activity” value was “+++ (+++ is >60%)” and the EC50 is < 1 µM. Also, at CFTR [2], the “Ent. B Max Activity” value was “++ (++ is 30-60%)” and the EC50 is < 1 µM.

As for `Cc1cccc(Cc2cccc(C)c2-c2cc3nc(n2)NS(=O)(=O)c2cccc(c2)C(=O)N[C@H](CC(C)C)CO3)c1` [Compound 170], at CFTR [1] (Table 9), the “Ent. A Max Activity” value is recorded as “+++ (+++ is >60%)” and the EC50 is < 1 µM. At CFTR [2], the “Ent. B Max Activity” value is listed as “+++ (+++ is >60%)” and the EC50 is < 1 µM.

`Cc1cccc(C)c1-c1cc2nc(n1)NS(=O)(=O)c1cccc(c1)C(=O)N[C@@H](C(CC(C)C)c1ccccc1)CO2` (stereo in doubt) [Compound 183]: at CFTR [1] (Table 9), the “Ent. A Max Activity” value is “+++ (+++ is >60%)” and the EC50 was < 1 µM. In addition, on CFTR [2], the “Ent. B Max Activity” value is given as “+++ (+++ is >60%)” and the EC50 is < 1 µM.

Regarding `Cc1cccc(C)c1-c1cc2nc(n1)NS(=O)(=O)c1cccc(c1)C(=O)N[C@@H]1CN(Cc3ccc(C(C)(C)C)cc3)C[C@H]1O2` [Compound 63, (3R,7R)-5-[(4-tert-Butylphenyl)methyl]-19-(2,6-dimethylphenyl)-2-oxa-15λ^6-thia-5,8,16,18,21-pentaazatetracyclo[15.3.1.110,14.03,7]docosa-1(20),10(22),11,13,17(21),18-hexaene-9,15,15-trione], at CFTR [1] (Table 9), the “Ent. A Max Activity” value was “+++ (+++ is >60%)” and the EC50 is < 1 µM. In addition, on CFTR [2], the “Ent. B Max Activity” value is on record as “+++ (+++ is >60%)” and the EC50 is < 1 µM.

For the compound `Cc1cccc(C)c1-c1cc2nc(n1)NS(=O)(=O)c1cccc(c1)C(=O)N[C@H](CC(C)C)[C@@H](c1ccc(C(C)(C)C)cc1)O2` (single isomer, unassigned) [Compound 39], on CFTR [1] (Table 9), the “Ent. A Max Activity” value was “+++ (+++ is >60%)” and the EC50 was < 1 µM. Moreover, at CFTR [2], the “Ent. B Max Activity” value is recorded as “+++ (+++ is >60%)” and the EC50 is < 1 µM.

Turning to `Cc1cccc(C)c1-c1cc2nc(n1)NS(=O)(=O)c1cccc(c1)C(=O)NCC(CC(C)C)(CC(C)C)CO2` [Compound 496], on CFTR [1] (Table 9), the “Ent. A Max Activity” value is “+++ (+++ is >60%)” and the EC50 was < 1 µM. At CFTR [2], the “Ent. B Max Activity” value is reported as “+++ (+++ is >60%)” and the EC50 is < 1 µM.

Consider `Cc1cccc(C)c1-c1cc2nc(n1)NS(=O)(=O)c1cccc(c1)C(=O)N[C@@H](C(CC(C)C)c1ccccc1)CO2` (stereo in doubt) [Compound 181], for which, on CFTR [1] (Table 9), the “Ent. A Max Activity” value was “+++ (+++ is >60%)” and the EC50 is < 1 µM. On CFTR [2], the “Ent. B Max Activity” value is “+++ (+++ is >60%)” and the EC50 was < 1 µM.

For `Cc1cccc(C)c1-c1cc2nc(n1)NS(=O)(=O)c1cccc(c1)C(=O)N[C@@H]1CN(c3ccc(C(F)(F)F)cn3)C[C@H]1O2` [Compound 62, (3R,7R)-19-(2,6-Dimethylphenyl)-5-[5-(trifluoromethyl)pyridin-2-yl]-2-oxa-15λ^6-thia-5,8,16,18,21-pentaazatetracyclo[15.3.1.110,14.03,7]docosa-1(20),10(22),11,13,17(21),18-hexaene-9,15,15-trione], at CFTR [1] (Table 9), the “Ent. A Max Activity” value is “+++ (+++ is >60%)” and the 50% effective concentration (EC50) is < 1 µM. Also, on CFTR [2], the “Ent. B Max Activity” value is on record as “++ (++ is 30-60%)” and the EC50 is < 1 µM.

One may read the EC50 as the concentration needed to bring the measured effect to its halfway point.
